The values that follow come from patent US7998993B2, “TRPV1 antagonists” (Abbott Laboratories, priority 2007, dated 2011).

One may read the IC50 as the concentration at which inhibition is half-maximal. Broadly, the Kp is the ratio of the level in a tissue or fluid to that in plasma or blood.

Data set [1] addresses T1, human TRPV1 receptor (Homo sapiens, UniProt Q8NER1).
T1 construct: expressed in transfected cells
As to the kind of experiment: Ca2+ influx assay (FLIPR, Fluo-4 AM) with capsaicin challenge in 1321N1 cells expressing recombinant TRPV1. In kind it is cell-based. The settings on record: inhibition of 0.05 μM capsaicin response, hTRPV1 in 1321N1 human astrocytoma cells. Here is the method: Dulbecco's modified Eagle medium (D-MEM) (with 4.5 mg/mL glucose) and fetal bovine serum were obtained from Hyclone Laboratories, Inc. (Logan, Utah). Dulbecco's phosphate-buffered saline (D-PBS) (with 1 mg/mL glucose and 3.6 mg/l Na pyruvate, without phenol red), L-glutamine, hygromycin B, and Lipofectamine® were obtained from Life Technologies (Grand Island, N.Y.). G418 sulfate was obtained from Calbiochem-Novabiochem Corp. (San Diego, Calif.). Capsaicin (8-methyl-N-vanillyl-6-nonenamide) was obtained from Sigma-Aldrich, Co. (St. Louis, Mo.). Fluo-4 AM (N-[4-[6-[(acetyloxy)methoxy]-2,7-difluoro-3-oxo-3H-xanthen-9-yl]-2-[2-[2-[bis[2-[(acetyloxy)methoxy]-2-oxyethyl]amino]-5-methy lphenoxy]ethoxy]phenyl]-N-[2-[(acetyloxy)methoxy]-2-oxyethyl]-glycine, (acetyloxy)methyl ester) was purchased from Molecular Probes (Eugene, Oreg.).
The cDNAs for the human TRPV1 receptor were isolated by reverse transcriptase-polymerase chain reaction (RT-PCR) from human small intestine poly A+RNA supplied by Clontech (Palo Alto, Calif.) using primers designed surrounding the initiation and termination codons identical to the published sequences (Hayes et al. Pain Vol. 88 pages 205-215, 2000). The resulting cDNA PCR products were subcloned into pCIneo mammalian expression vector (Promega) and fully sequenced using fluorescent dye-terminator reagents (Prism, Perkin-Elmer Applied Biosystems Division) and a Perkin-Elmer Applied Biosystems Model 373 DNA sequencer or Model 310 genetic analyzer. Expression plasmids encoding the hTRPV1 cDNA were transfected individually into 1321N1 human astrocytoma cells using Lipofectamine®. Forty-eight hours after transfection, the neomycin-resistant cells were selected with growth medium containing 800 μg/mL Geneticin (Gibco BRL). Surviving individual colonies were isolated and screened for TRPV1 receptor activity. Cells expressing recombinant homomeric TRPV1 receptors were maintained at 37° C. in D-MEM containing 4 mM L-glutamine, 300 μg/mL G418 (Cal-biochem) and 10% fetal bovine serum under a humidified 5% CO2 atmosphere.
The functional activity of compounds at the TRPV1 receptor was determined with a Ca^2+ influx assay and measurement of intracellular Ca^2+ levels ([Ca^2+]i). All compounds were tested over an 11-point half-log concentration range. Compound solutions were prepared in D-PBS (4× final concentration), and diluted serially across 96-well v-bottom tissue culture plates using a Biomek 2000 robotic automation workstation (Beckman-Coulter, Inc., Fullerton, Calif.). A 0.2 μM solution of the TRPV1 agonist capsaicin was also prepared in D-PBS. The fluorescent Ca^2+ chelating dye Fluo-4 AM was used as an indicator of the relative levels of [Ca^2+]i in a 96-well format using a Fluorescence Imaging Plate Reader (FLIPR)(Molecular Devices, Sunnyvale, Calif.). Cells were grown to confluency in 96-well black-walled tissue culture plates. Then, prior to the assay, the cells were loaded with 100 μL per well of Fluo-4 AM (2 μM, in D-PBS) for 1-2 hours at 23° C. Washing of the cells was performed to remove extracellular Fluo-4 AM (2×1 mL D-PBS per well), and afterward, the cells were placed in the reading chamber of the FLIPR instrument. 50 μL of the compound solutions were added to the cells at the 10 second time mark of the experimental run. Then, after a 3-minute time delay, 50 μL of the capsaicin solution was added at the, 190 seconds time mark (0.05 μM final concentration)([…]) to challenge the TRPV1 receptor. Time length of the experimental run was 240 seconds. Fluorescence readings were made at 1 to 5 second intervals over the course of the experimental run. The peak increase in relative fluorescence units (minus baseline) was calculated from the 190 seconds time mark to the end of the experimental run, and expressed as a percentage of the 0.05 μM capsaicin (control) response.

Data set [2] is described as follows: Plasma and brain concentrations in rats after an oral dose. It is filed as in vivo. The settings on record: rat, fasted male Sprague-Dawley rats, two hours after dosing; for Kp at 2 h: brain/plasma. As to the method: The compounds were prepared as a solution in a 10% DMSO/poly(ethylene glycol)-400 (v/v). Blood and brain samples were obtained from each animal two hours after dosing.
Rat brain tissue was homogenized with two parts water (by weight). Test compound was selectively extracted from plasma and brain homogenate using liquid-liquid extraction with tert-butylmethylether. The compounds of interest were separated from co-extracted contaminants on a 50×3 mm, Luna CN column (Phenomenex), with an acetonitrile:0.1% aqueous trifluoroacetic acid mobile phase at a flow rate of 0.35 ml/min. Plasma and tissue concentrations were determined by HPLC-MS/MS on an API2000 with Turbo Ion Spray interface, with MRM detection in the positive ionization mode. To calibrate compound concentration, a separate portion of each tissue sample was spiked with a known quantity of test compound and analyzed simultaneously with the samples.

The mark [3] stands for this setting: brain, 30 μmol/kg oral, read-out: [Brain].
The mark [4] stands for this setting: plasma, 30 μmol/kg oral, read-out: [Plasma].
Setting [5] is: brain, 10 μmol/kg PO, read-out: [Brain].
Where [6] appears, read: plasma, 10 μmol/kg PO, read-out: [Plasma].

Where two headings read alike, the source gives them in different places.

T1 sequence (Q8NER1 whole entry): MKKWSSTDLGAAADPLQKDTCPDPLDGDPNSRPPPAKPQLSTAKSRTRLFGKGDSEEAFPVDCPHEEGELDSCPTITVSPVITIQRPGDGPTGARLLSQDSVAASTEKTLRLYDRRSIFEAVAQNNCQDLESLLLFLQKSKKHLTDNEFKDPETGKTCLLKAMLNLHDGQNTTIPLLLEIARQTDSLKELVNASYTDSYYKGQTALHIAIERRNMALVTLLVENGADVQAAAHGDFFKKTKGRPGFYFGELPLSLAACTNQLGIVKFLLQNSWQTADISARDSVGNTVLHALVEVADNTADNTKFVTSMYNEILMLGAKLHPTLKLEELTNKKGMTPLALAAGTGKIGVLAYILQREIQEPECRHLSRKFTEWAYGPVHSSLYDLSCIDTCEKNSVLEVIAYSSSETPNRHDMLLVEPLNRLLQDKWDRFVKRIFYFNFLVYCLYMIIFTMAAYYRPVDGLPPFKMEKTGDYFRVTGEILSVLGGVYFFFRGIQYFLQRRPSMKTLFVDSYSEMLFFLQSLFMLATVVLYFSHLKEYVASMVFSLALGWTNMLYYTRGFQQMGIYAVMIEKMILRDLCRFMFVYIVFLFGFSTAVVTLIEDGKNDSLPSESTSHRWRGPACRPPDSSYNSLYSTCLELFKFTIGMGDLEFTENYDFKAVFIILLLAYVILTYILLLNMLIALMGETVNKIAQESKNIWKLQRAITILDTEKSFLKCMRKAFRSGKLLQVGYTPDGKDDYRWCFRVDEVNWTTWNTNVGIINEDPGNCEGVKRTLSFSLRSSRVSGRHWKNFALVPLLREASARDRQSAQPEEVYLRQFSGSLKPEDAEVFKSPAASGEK

As for `Cc1nc(Nc2cccc3c2CC(O)CC3)oc1-c1ccc(C(F)(F)F)cc1F` (stereo not drawn) [Compound 5, 8-({5-[2-fluoro-4-(trifluoromethyl)phenyl]-4-methyl-1,3-oxazol-2-yl}amino)-1,2,3,4-tetrahydronaphthalen-2-ol], in data set [1], the IC50 stood at 43 nM. In data set [2] (30 μmol/kg oral), this molecule registered a Kp at 2 h of 3. Also, the concentration at 2 h in data set [2] (setting [3]) was 660 ng/g; in data set [2] (setting [4]), 210 ng/mL.

In the case of `Cc1nc(Nc2cccc3c2CC(O)CC3)oc1-c1ccc(C(F)(F)F)c(F)c1F` (stereo not drawn) [Compound 6, 8-({5-[2,3-difluoro-4-(trifluoromethyl)phenyl]-4-methyl-1,3-oxazol-2-yl}amino)-1,2,3,4-tetrahydronaphthalen-2-ol], in data set [1], the IC50 was 62 nM. In data set [2] (30 μmol/kg oral), this molecule returned a Kp at 2 h of 1.7. The concentration at 2 h in data set [2] (setting [3]) was 230 ng/g; in data set [2] (setting [4]), 130 ng/mL.

As for `Cc1nc(Nc2cccc3c2CC(O)CC3)oc1-c1ccc(OC(F)(F)F)cc1` (stereo not drawn) [Compound 9, 8-({4-methyl-5-[4-(trifluoromethoxy)phenyl]-1,3-oxazol-2-yl}amino)-1,2,3,4-tetrahydronaphthalen-2-ol], the IC50 in data set [1] was 184 nM. Moreover, in data set [2] (30 μmol/kg oral), the Kp at 2 h stood at 4. The figures for the concentration at 2 h in data set [2] (setting [3]) and in data set [2] (setting [4]) were 2100 ng/g and 510 ng/mL, respectively.

On to `Cc1nc(Nc2cccc3c2CC(O)CC3)oc1-c1ccc(C(F)(F)F)cc1` (stereo not drawn) [Compound 12, 8-({4-methyl-5-[4-(trifluoromethyl)phenyl]-1,3-oxazol-2-yl}amino)-1,2,3,4-tetrahydronaphthalen-2-ol], for which, in data set [2] (30 μmol/kg oral), the Kp at 2 h is 6.3. The concentration at 2 h in data set [2] (setting [3]) is 3300 ng/g; in data set [2] (setting [4]), 490 ng/mL.

In the case of `Cc1nc(Nc2cccc3c2CC(O)CC3)oc1-c1ccc(Cl)cc1` (stereo not drawn) [Compound 13, 8-{[5-(4-chlorophenyl)-4-methyl-1,3-oxazol-2-yl]amino}-1,2,3,4-tetrahydronaphthalen-2-ol], the IC50 in data set [1] was 108 nM. The same molecule returned a Kp at 2 h in data set [2] (30 μmol/kg oral) of 5.6. In addition, the concentration at 2 h in data set [2] (setting [3]) came out at 600 ng/g; in data set [2] (setting [4]) it was 93 ng/mL.

Consider `Cc1nc(Nc2cccc3c2CC(O)CC3)oc1-c1ccc(C#N)cc1` (stereo not drawn) [Compound 15, 4-{2-[(7-hydroxy-5,6,7,8-tetrahydronaphthalen-1-yl)amino]-4-methyl-1,3-oxazol-5-yl}benzonitrile], for which the IC50 in data set [1] came to 36 nM. The molecule also registered a Kp at 2 h in data set [2] (30 μmol/kg oral) of 1.3. The concentration at 2 h in data set [2] (setting [3]) is 310 ng/g; in data set [2] (setting [4]), 250 ng/mL.

Regarding `Cc1nc(Nc2cccc3c2CC(O)CC3)oc1-c1ccc(C(F)(F)F)o1` (stereo not drawn) [Compound 31, 8-({4-methyl-5-[5-(trifluoromethyl)-2-furyl]-1,3-oxazol-2-yl}amino)-1,2,3,4-tetrahydronaphthalen-2-ol], the IC50 in data set [1] was determined as 703 nM. In data set [2] (10 μmol/kg PO), this molecule returned a Kp at 2 h of 1.3. For the same molecule, the concentration at 2 h came to 50 ng/g in data set [2] (setting [5]) and 40 ng/mL in data set [2] (setting [6]).

For `C=C(C)[C@H]1CC=C(c2oc(Nc3cccc4c3CC(O)CC4)nc2C)CC1` (stereo partly drawn) [Compound 32, 8-({5-[(4R)-4-isopropenylcyclohex-1-en-1-yl]-4-methyl-1,3-oxazol-2-yl}amino)-1,2,3,4-tetrahydronaphthalen-2-ol], in data set [1], the IC50 stood at 395 nM. In data set [2] (10 μmol/kg PO), this molecule yielded a Kp at 2 h of 1.9. In addition, the values for the concentration at 2 h in data set [2] (setting [5]) and in data set [2] (setting [6]) were 15 ng/g and 9 ng/mL, respectively.

As for `Cc1nc(Nc2cccc3c2CC(O)CC3)oc1-c1ccc(S(F)(F)(F)(F)F)cc1` (stereo not drawn) [Compound 40, 8-({4-methyl-5-[4-(pentafluoro-lambda˜6˜sulfanyl)phenyl]-1,3-oxazol-2-yl}amino)-1,2,3,4-tetrahydronaphthalen-2-ol], the IC50 in data set [1] was 52 nM. Further, in data set [2] (10 μmol/kg PO), the Kp at 2 h amounted to 1.4. The figures for the concentration at 2 h in data set [2] (setting [5]) and in data set [2] (setting [6]) were 160 ng/g and 110 ng/mL, respectively.

Regarding `CCc1nc(Nc2cccc3c2C[C@H](O)CC3)oc1-c1ccc(C(F)(F)F)cc1` [Compound 43, (2R)-8-({4-ethyl-5-[4-(trifluoromethyl)phenyl]-1,3-oxazol-2-yl}amino)-1,2,3,4-tetrahydronaphthalen-2-ol], in data set [1], the IC50 was 74 nM. Also, the Kp at 2 h in data set [2] (10 μmol/kg PO) was 2.8. Further, the concentration at 2 h in data set [2] (setting [5]) is 410 ng/g; in data set [2] (setting [6]) it was 140 ng/mL.

Regarding `Cc1nc(Nc2cccc3c2CC(O)CO3)oc1-c1ccc(C(F)(F)F)cc1` (stereo not drawn) [Compound 51, 5-({4-methyl-5-[4-(trifluoromethyl)phenyl]-1,3-oxazol-2-yl}amino)chroman-3-ol], in data set [1], the IC50 came to 618 nM. This molecule also returned a Kp at 2 h in data set [2] (10 μmol/kg PO) of 2.7. Moreover, the concentration at 2 h is 800 ng/g in data set [2] (setting [5]) and 300 ng/mL in data set [2] (setting [6]).

As for `O[C@@H]1CCc2cccc(Nc3nc(C(F)F)c(-c4ccc(C(F)(F)F)cc4)o3)c2C1` [Compound 53, (2R)-8-({4-(difluoromethyl)-5-[4-(trifluoromethyl)phenyl]-1,3-oxazol-2-yl}amino)-1,2,3,4-tetrahydronaphthalen-2-ol], the IC50 in data set [1] amounted to 38 nM. In addition, the Kp at 2 h in data set [2] (10 μmol/kg PO) amounted to 3.4. Besides, the concentration at 2 h in data set [2] (setting [5]) turned out to be 930 ng/g; in data set [2] (setting [6]), 270 ng/mL.

With `OC1CCc2cccc(Nc3ncc(-c4ccc(C(F)(F)F)cc4)o3)c2C1` (stereo not drawn) [Compound A, 8-({5-[4-(trifluoromethyl)phenyl]-1,3-oxazol-2-yl}amino)-1,2,3,4-tetrahydronaphthalen-2-ol, reference compound], the IC50 in data set [1] is 22 nM. Also, the Kp at 2 h in data set [2] (30 μmol/kg oral) worked out at 0. Further, the results for the concentration at 2 h in data set [2] (setting [3]) and in data set [2] (setting [4]) were 0 ng/g and 0 ng/mL, respectively.
